In series [1] the test system is active seizures in an epileptic Entlebucher Mountain Dog. The experiment in a line: Arresting active seizures in canine. The format is in vivo. The note with it: single oral dose of 0.5-1.0 mg/kg in a formulation prepared according to Example 1.
Series [2] relates to chronic insomnia. The experiment in a line: Efficacy against insomnia in humans. The series is classed as in vivo. The note with it: adult human with chronic insomnia; approximately 25 milligrams in a formulation prepared according to Example 3; self-reported.
Series [3] in a line: Solubility in ethanol:glycerol. The series is classed as physicochemical. The conditions noted are these: in 25:75 by volume ethanol:glycerol; stated as lower than the 25 grams per liter of cannabidiol anion in the formulation. The text has this:
Cannabidiol is deprotonated in 0.5 molar potassium hydroxide in 190 proof ethanol to produce cannabidiol anion (2-(6-isopropenyl-3-methylcyclohex-2-en-1-yl)-3-hydroxy-5-pentylbenzene-1-oxide).

Structures are written as SMILES.

As for `C=C(C)C1CCC(C)=CC1c1c(O)cc(CCCCC)cc1O` (centres unmarked) [cannabidiol anion, 2-(6-isopropenyl-3-methylcyclohex-2-en-1-yl)-3-hydroxy-5-pentylbenzene-1-oxide], in series [1], the “arrest of active seizures” value is “both consistently and instantaneously arrested active seizures”; the “seizure duration and severity” value was “reduced seizure duration and severity”.
With `CCCCCc1cc(O)c(CC=C(C)CCC=C(C)C)c(O)c1` [cannabigerol anion, 2-(3,7-dimethylocta-2,6-diene-1-yl)-3-hydroxy-5-pentylbenzene-1-oxide], in series [2], the “onset time of sedative effect” value is “less than five” and the “sedative effect on insomnia” value is “effective at treating the insomnia”.
Regarding `C=C(C)[C@@H]1CCC(C)=C[C@H]1c1c(O)cc(CCCCC)cc1O` [molecular cannabidiol, cannabidiol], the “solubility of molecular cannabidiol” value in series [3] is listed as under 25 grams per liter.
